Reference: ChEMBL document CHEMBL1201862, “PubChem BioAssay data set” (2004)
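Protocol summary: plate cells (96-well), add compound at 5 concentrations, incubate 48 h, interpolate endpoints linearly. The concentration for 50% growth inhibition is given as GI50.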 Calls of active or inactive are those of the source. Cut-off read from the data, not from the text of the source: active = GI50 up to about 1.1 µM and inactive = higher.

Experiments:
Assay in all cases: NCI anticancer screen, dose series, 48 h
[1] = test system: A549
[2] = test system: NCI/ADR-RES
[3] = test system: TK-10
[4] = test system: SF-295
[5] = test system: 786-0
[6] = test system: HCT-116
[7] = test system: HCT-15
[8] = test system: MDA-MB-231
[9] = test system: NCI-H226
[10] = test system: SK-OV-3
[11] = test system: OVCAR-5
[12] = test system: SK-MEL-2
[13] = test system: COLO 205
[14] = test system: NCI-H460
[15] = test system: RPMI-8226
[16] = test system: RXF 393
[17] = test system: NCI-H23
[18] = test system: SK-MEL-28
[19] = test system: HOP-62
[20] = test system: DU-145
[21] = test system: UACC-257
[22] = test system: NCI-H522
[23] = test system: M14
[24] = test system: Hs-578T
[25] = test system: SF-268
[26] = test system: OVCAR-8
[27] = test system: SW-620
[28] = test system: ACHN
[29] = test system: A498
[30] = test system: MDA-N
[31] = test system: OVCAR-3
[32] = test system: Malme-3M
[33] = test system: HOP-92
[34] = test system: SNB-75
[35] = test system: EKVX
[36] = test system: MCF7
[37] = test system: SNB-19
[38] = test system: MDA-MB-435
[39] = test system: HL-60
[40] = test system: K562
[41] = test system: PC-3
[42] = test system: LOX IMVI
[43] = test system: UACC-62
[44] = test system: UO-31
[45] = test system: SR
[46] = test system: KM12
[47] = test system: T47D
[48] = test system: CAKI-1
[49] = test system: SF-539
[50] = test system: MOLT-4
[51] = test system: CCRF-CEM
[52] = test system: SK-MEL-5
[53] = test system: SN12C
[54] = test system: HT-29
[55] = test system: U-251
[56] = test system: HCC 2998
[57] = test system: OVCAR-4

In the case of O=C(/C=C\c1ccc(Cl)cc1Cl)c1cccs1, the GI50 [1] is reported as 24.9 µM (inactive), the GI50 [2] is reported as 30.4 µM (inactive) and the GI50 [3] is reported as 24.5 µM (inactive). For the same compound, the GI50 [4] was 18.3 µM (inactive), the GI50 [5] was 17.5 µM (inactive) and the GI50 [6] was 9.57 µM (inactive). For the same compound, the GI50 [7] was 14.4 µM, the GI50 [8] was 16.7 µM (inactive) and the GI50 [9] was 20.7 µM (inactive). The GI50 [10] was 26.1 µM (inactive), the GI50 [11] was 20 µM (inactive) and the GI50 [12] was 18.9 µM (inactive). For the same compound, the GI50 [13] was 16.5 µM (inactive), the GI50 [14] was 23.9 µM (inactive) and the GI50 [15] was 3.61 µM (inactive). The GI50 [16] was 24 µM (inactive), the GI50 [17] was 19.2 µM (inactive) and the GI50 [18] was 24.5 µM (inactive). The GI50 [19] was 24.3 µM (inactive), the GI50 [20] was 21.3 µM (inactive) and the GI50 [21] was 19.5 µM (inactive). For the same compound, the GI50 [22] was 21.2 µM (inactive), the GI50 [23] was 18.8 µM (inactive) and the GI50 [24] was 24.8 µM (inactive). The GI50 [25] was 23.4 µM (inactive), the GI50 [26] was 12 µM (inactive) and the GI50 [27] was 12.5 µM (inactive). The GI50 [28] was 14.7 µM (inactive), the GI50 [29] was 19.7 µM (inactive) and the GI50 [30] was 16.6 µM (inactive). The GI50 [31] was 28.4 µM (inactive), the GI50 [32] was 21.4 µM (inactive) and the GI50 [33] was 26.4 µM (inactive). The GI50 [34] was 25.2 µM (inactive), the GI50 [35] was 16.9 µM (inactive) and the GI50 [36] was 6.89 µM (inactive). For the same compound, the GI50 [37] was 17 µM (inactive), the GI50 [38] was 16.6 µM (inactive) and the GI50 [39] was 37.2 µM (inactive). For the same compound, the GI50 [40] was 21.1 µM (inactive), the GI50 [41] was 16.4 µM (inactive) and the GI50 [42] was > 10 µM (inactive). For the same compound, the GI50 [43] was 14.7 µM (inactive), the GI50 [44] was 11.9 µM (inactive) and the GI50 [45] was 5.61 µM (inactive). The GI50 [46] was 16.3 µM (inactive), the GI50 [47] was 21.9 µM (inactive) and the GI50 [48] was 24.2 µM (inactive). The GI50 [49] was 19.8 µM (inactive), the GI50 [50] was 30.2 µM (inactive) and the GI50 [51] was 21.3 µM (inactive). The GI50 [52] was 16.3 µM (inactive), the GI50 [53] was 17.4 µM (inactive) and the GI50 [54] was 23.4 µM (inactive).

Nc1nc(N)c2ncn(CC3CCC(CO)C3)c2n1 (stereo not drawn) was tested, and the GI50 [1] was > 100 µM (inactive), the GI50 [2] was > 100 µM (inactive) and the GI50 [3] was > 100 µM (inactive). For the same compound, the GI50 [4] was > 100 µM (inactive), the GI50 [5] was > 100 µM (inactive) and the GI50 [6] was > 100 µM (inactive). For the same compound, the GI50 [7] was > 100 µM, the GI50 [8] was > 100 µM (inactive) and the GI50 [9] was > 100 µM (inactive). The GI50 [10] was > 100 µM (inactive), the GI50 [11] was > 100 µM (inactive) and the GI50 [12] was > 100 µM (inactive). For the same compound, the GI50 [13] was > 100 µM (inactive), the GI50 [55] was > 100 µM (inactive) and the GI50 [15] was > 100 µM (inactive). The GI50 [56] was > 100 µM (inactive), the GI50 [16] was > 100 µM (inactive) and the GI50 [18] was > 100 µM (inactive). The GI50 [19] was > 100 µM (inactive), the GI50 [20] was > 100 µM (inactive) and the GI50 [21] was > 100 µM (inactive). For the same compound, the GI50 [23] was > 100 µM (inactive), the GI50 [24] was > 100 µM (inactive) and the GI50 [25] was > 100 µM (inactive). The GI50 [27] was > 100 µM (inactive), the GI50 [28] was > 100 µM (inactive) and the GI50 [29] was > 100 µM (inactive). For the same compound, the GI50 [30] was > 100 µM (inactive), the GI50 [31] was > 100 µM (inactive) and the GI50 [33] was > 100 µM (inactive). For the same compound, the GI50 [34] was > 100 µM (inactive), the GI50 [35] was > 100 µM (inactive) and the GI50 [36] was > 100 µM (inactive). The GI50 [37] was > 100 µM (inactive), the GI50 [38] was > 100 µM (inactive) and the GI50 [40] was > 100 µM (inactive). The GI50 [41] was > 100 µM (inactive), the GI50 [42] was > 100 µM (inactive) and the GI50 [43] was > 100 µM (inactive). The GI50 [44] was > 100 µM (inactive), the GI50 [46] was > 100 µM (inactive) and the GI50 [47] was > 100 µM (inactive). For the same compound, the GI50 [48] was > 100 µM (inactive), the GI50 [49] was > 100 µM (inactive) and the GI50 [50] was > 100 µM (inactive). For the same compound, the GI50 [57] was > 100 µM (inactive), the GI50 [51] was > 100 µM (inactive) and the GI50 [52] was > 100 µM (inactive). The GI50 [53] was > 100 µM (inactive).
